According to patent US20230045245A1, “HETEROCYCLIC COMPOUND OR SALT THEREOF, ACTIVE MATERIAL, ELECTROLYTIC SOLUTION AND REDOX FLOW BATTERY” (NIPPON KAYAKU KABUSHIKI KAISHA, priority 2020, published 2023):
Read-outs that look alike come from different tables or passages of the source.

Tests used:
[1] = Solubility to water calculated from UV-visible absorbance; settings: for Solubility (%): saturated solution in water, diluted with standard buffer pH 6.86 (25° C.), absorbance at maximum absorption wavelength 300-550 nm, calibration curve
[2] = pH 6.86
[3] = solubility to water, calculated from solubility (%), density of the solution assumed to be 1.0 g/cm^3
[4] = water, thermodynamic from solid

| Solubility (%) [1] [%] | solubility [1, 4] [mM] | Compound | solubility [1, 3] [mM] | Solubility (%) [2] [%] |
| --- | --- | --- | --- | --- |
| 36.6 | 670 | O=C1C(SCCCS(=O)(=O)[O-])=C(SCCCS(=O)(=O)[O-])C(=O)c2ccccc21.[K+].[K+] [formula (2-1)] |  |  |
| 17.7 | 200 | O=C([O-])COc1cc2c(c(OCC(=O)[O-])c1OCC(=O)[O-])C(=O)c1cc(OCC(=O)[O-])c(OCC(=O)[O-])c(OCC(=O)[O-])c1C2=O.[K+].[K+].[K+].[K+].[K+].[K+] [formula (3-2)] |  |  |
| 35.3 | 510 | O=C1c2ccccc2C(=O)c2c1cc(OCCCS(=O)(=O)[O-])c(OCCCS(=O)(=O)[O-])c2OCCCS(=O)(=O)[O-].[Na+].[Na+].[Na+] [formula (3-3)] |  |  |
| 41.8 | 500 | O=C1c2cc(OCCOCCOCCO)c(O)c(OCCOCCOCCO)c2C(=O)c2cc(OCCOCCOCCO)c(O)c(OCCOCCOCCO)c21 [formula (3-5)] |  |  |

Continued, compound first:

| Compound | Solubility (%) [1] [%] | solubility [1, 4] [mM] | solubility [1, 3] [mM] | Solubility (%) [2] [%] |
| --- | --- | --- | --- | --- |
| O=C1c2cccc(S(=O)(=O)[O-])c2C(=O)c2cccc(S(=O)(=O)[O-])c21.[Na+].[Na+] [9,10-anthraquinone-1,5-disulfonic acid (Na), reference compound] | 2.7 |  | 70 |  |
| O=C1c2cccc(S(=O)(=O)[O-])c2C(=O)c2c1cccc2S(=O)(=O)[O-].[K+].[K+] [9,10-anthraquinone-1,8-disulfonic acid (K), reference compound] | 0.2 |  | 4 |  |
| O=C1c2ccccc2C(=O)c2cc(S(=O)(=O)[O-])ccc21.[Na+] [9,10-anthraquinone-2-sulfonic acid (Na)] |  |  |  | 0.7 |
